Measurements taken from EPA's ToxRefDB 2.

Experiments:
[1] = test system: rat; conditions: Combined chronic toxicity/carcinogenicity, sprague dawley, Oral, Feed, dose end: 24 month, group: systemic
[2] = test system: mouse; conditions: Carcinogenicity, cd1, Oral, Feed, dose end: 18 month, group: systemic
[3] = test system: rat; conditions: Subchronic oral toxicity in rodents, other, Feed, dose end: 90 day, group: systemic
[4] = test system: dog; conditions: Chronic toxicity; beagle; Oral; Feed; dose end: 52 week; group: systemic; systemic / pathology microscopic / eye / [other] + systemic / pathology microscopic / eye / cataract + systemic / pathology microscopic / …
[5] = test system: dog; conditions: Subchronic oral toxicity in nonrodent, beagle, Feed, dose end: 91 day, group: systemic
[6] = test system: rat; conditions: Multigenerational reproductive toxicity study, other, Oral, Feed, dose end: 2 generation
[7] = test system: mouse; conditions: Subchronic oral toxicity in rodents, cd1, Feed, dose end: 13 week, group: systemic
[8] = test system: rat; conditions: Subchronic oral toxicity in rodents, sprague dawley, Feed, dose end: 13 week, group: systemic
[9] = test system: rat; conditions: Combined chronic toxicity/carcinogenicity, sprague dawley, Oral, Feed, dose end: 105 week, group: systemic
[10] = test system: rat; conditions: Chronic toxicity, Oral, Diet, dose end: 53 week, group: systemic
[11] = test system: dog; conditions: Subchronic oral toxicity in nonrodent, beagle, Gavage/Intubation, dose end: 14 week, group: systemic
[12] = test system: dog; conditions: Chronic toxicity; beagle; Oral; Gavage/Intubation; dose end: 53 week; group: systemic; systemic / in life observation / clinical signs / stiffness + systemic / in life observation / clinical signs / tremors + systemic / …
[13] = test system: rat; conditions: Multigenerational reproductive toxicity study, Sprague-Dawley, Oral, Feed, dose end: 2 generation
[14] = test system: rat; conditions: Prenatal developmental toxicity study, sprague dawley, Oral, Gavage/Intubation, dose end: 18 GD
[15] = test system: rat; conditions: Prenatal developmental toxicity study, wistar, Oral, Gavage/Intubation, dose end: 19 GD
[16] = test system: rat; conditions: Subchronic oral toxicity in rodents, wistar, Feed, dose end: 90 day, group: systemic
[17] = test system: dog; conditions: Subchronic oral toxicity in nonrodent, beagle, Capsule, dose end: 90 day, group: systemic
[18] = test system: rat; conditions: Subchronic oral toxicity in rodents, wistar, Feed, dose end: 28 day, group: systemic
[19] = systemic / hematology / anemia / anemia - hemolytic + systemic / in life observation / body weight / body weight gain + systemic / …
[20] = systemic / pathology microscopic / liver / fatty change + systemic / pathology microscopic / liver / necrosis + systemic / pathology …
[21] = systemic / clinical chemistry / globulins / globulins
[22] = systemic / hematology / erythrocyte (rbc) count differential / erythrocyte (rbc) + systemic / hematology / hemoglobin (hgb) / hemoglobin (…
[23] = systemic / hematology / anemia / anemia - nos + systemic / hematology / erythrocyte (rbc) count differential / erythrocyte (rbc) + systemic…
[24] = group: offspring, systemic / in life observation / body weight / litter weight + developmental / offspring survival late / viability index / viability index
[25] = group: parental, systemic / clinical chemistry / alanine aminotransferase (alt/sgpt) / alanine aminotransferase (alt/sgpt)
[26] = group: parental, systemic / clinical chemistry / sorbitol dehydrogenase / sorbitol dehydrogenase + systemic / clinical chemistry / alanine aminotransferase (…
[27] = systemic / hematology / platelet / platelet
[28] = systemic / in life observation / body weight / body weight + systemic / in life observation / clinical signs / emaciation + systemic / in …
[29] = systemic / in life observation / body weight / body weight + systemic / in life observation / body weight / body weight gain + systemic / in…
[30] = systemic / in life observation / clinical signs / locomotion + systemic / in life observation / clinical signs / motor activity + systemic…
[31] = systemic / pathology microscopic / brain / degeneration + systemic / pathology microscopic / skeletal muscle / atrophy + systemic / in life …
[32] = systemic / pathology microscopic / brain / degeneration + systemic / pathology microscopic / skeletal muscle / atrophy + systemic / …
[33] = group: maternal, systemic / in life observation / body weight / body weight gain
[34] = group: offspring, developmental / developmental malformation / limb / [other] + systemic / in life observation / clinical signs / tremors
[35] = group: parental, systemic / pathology microscopic / brain / degeneration + systemic / pathology microscopic / spinal cord / degeneration + systemic / in life…
[36] = group: reproductive, reproductive / reproductive performance / fertility / fertility
[37] = group: developmental, developmental / developmental malformation / bone / full supernumerary + developmental / developmental malformation / bone / incomplete …
[38] = group: maternal, systemic / in life observation / body weight / body weight gain + systemic / in life observation / clinical signs / convulsions + systemic…
[39] = group: developmental, developmental / developmental malformation / bone / full supernumerary
[40] = group: maternal, systemic / organ weight / liver / absolute + systemic / pathology microscopic / kidney / vacuolization + systemic / pathology microscopic / …
[41] = systemic / pathology microscopic / kidney / hyaline droplet
[42] = systemic / pathology microscopic / kidney / hyaline droplet + systemic / clinical chemistry / alanine aminotransferase (alt/sgpt) / alanine …
[43] = systemic / clinical chemistry / protein / protein + systemic / in life observation / clinical signs / vomiting + systemic / organ weight / …
[44] = systemic / clinical chemistry / calcium / calcium + systemic / clinical chemistry / phosphorus / phosphorus + systemic / pathology …

What does the source list for CC1(c2ccc(Oc3ccccc3)cc2)OC(=O)N(Nc2ccccc2)C1=O (stereo unspecified) [Famoxadone]?
LOAEL ([1]; systemic / hematology / anemia / anemia - hemolytic + systemic / in life observation / body weight / body weight gain): 10.7 mg/kg/day; LEL [1, 19]: 10.7 mg/kg/day; NEL [1, 19]: 2.15 mg/kg/day; NOAEL [1, 19]: 2.15 mg/kg/day; LEL ([2]; systemic / organ weight / liver / absolute + systemic / organ weight / liver / relative to body weight): 95.6 mg/kg/day; LOAEL [2, 20]: 274 mg/kg/day; NEL [2, 20]: 6.78 mg/kg/day; NOAEL [2, 20]: 95.6 mg/kg/day; LEL [3, 21]: 3.34 mg/kg/day; NEL [3, 21]: < 3.34 mg/kg/day; LOAEL [3, 22]: 13 mg/kg/day; NOAEL [3, 22]: 3.34 mg/kg/day; LEL [4]: 8.8 mg/kg/day; LOAEL [4]: 8.8 mg/kg/day; NEL [4]: 1.2 mg/kg/day; NOAEL [4]: 1.2 mg/kg/day; LEL [5, 23]: 1.4 mg/kg/day; NEL [5, 23]: < 1.4 mg/kg/day; LOAEL ([5]; systemic / pathology microscopic / eye / cataract + systemic / pathology microscopic / eye / cataract, cortical): 10 mg/kg/day; NOAEL ([5]; systemic / pathology microscopic / eye / cataract + systemic / pathology microscopic / eye / cataract, cortical + systemic / clinical …): 1.3 mg/kg/day; LOAEL ([6]; group: offspring, systemic / in life observation / body weight / litter weight): 53.3 mg/kg/day; LEL [6, 24]: 53.3 mg/kg/day; NEL [6, 24]: 14.2 mg/kg/day; NOAEL [6, 24]: 14.2 mg/kg/day; LEL [6, 25]: 1.45 mg/kg/day; NEL [6, 25]: < 1.45 mg/kg/day; LOAEL [6, 26]: 44.7 mg/kg/day; NOAEL [6, 26]: 11.3 mg/kg/day; LEL [7, 27]: 5.89 mg/kg/day; NEL [7, 27]: < 5.89 mg/kg/day; NOAEL ([7]; systemic / organ weight / liver / absolute + systemic / organ weight / liver / relative to body weight + systemic / clinical chemistry / …): 62.4 mg/kg/day; LOAEL ([7]; systemic / organ weight / liver / absolute + systemic / organ weight / liver / relative to body weight + systemic / hematology / anemia / …): 534 mg/kg/day

With CC[C@H](C)[C@H]1O[C@]2(C=C[C@@H]1C)C[C@@H]1C[C@@H](C/C=C(\C)[C@@H](O[C@H]3C[C@H](OC)[C@@H](O[C@H]4C[C@H](OC)[C@@H](NC)[C@H](C)O4)[C@H](C)O3)[C@@H](C)/C=C/C=C3\CO[C@@H]4[C@H](O)C(C)=C[C@@H](C(=O)O1)[C@]34O)O2.O=C(O)c1ccccc1 [Emamectin benzoate] as the compound, how does the LOAEL [8, 28] read?
Its LOAEL is 6.7 mg/kg/day.

What about the NOAEL [8, 28] of the same compound?
The NOAEL was 2.5 mg/kg/day.

And the LEL ([8]; systemic / pathology microscopic / eye / vacuolization)?
The LEL was 2.5 mg/kg/day.

What about the NEL ([8]; systemic / pathology microscopic / eye / vacuolization + systemic / in life observation / body weight / body weight + systemic / in life …) of the same compound?
Its NEL is 0.5 mg/kg/day.

What about the NEL ([9]; systemic / clinical chemistry / triglycerides / triglycerides + systemic / in life observation / body weight / body weight + systemic / …) of the same compound?
Its NEL is 0.25 mg/kg/day.

What about the LOAEL [9, 29] of the same compound?
Its LOAEL is 2.51 mg/kg/day.

And the NOAEL [9, 29]?
The NOAEL was 1.01 mg/kg/day.

What about the LEL ([9]; systemic / pathology microscopic / skin / fibroma + systemic / pathology gross / skin / nodule(s) + systemic / clinical chemistry / …) of the same compound?
Its LEL is 1.01 mg/kg/day.

What about the NEL ([10]; systemic / in life observation / body weight / body weight + systemic / in life observation / clinical signs / fur (altered appearance) + …) of the same compound?
The NEL was 1 mg/kg/day.

What about the LEL [10, 30] of the same compound?
Its LEL is 2.5 mg/kg/day.

And the LOAEL [10, 30]?
Its LOAEL is 2.5 mg/kg/day.

And the NOAEL [10, 30]?
Its NOAEL is 1 mg/kg/day.

And the NEL [11, 31]?
Its NEL is 0.25 mg/kg/day.

What about the NOAEL [11, 31] of the same compound?
Its NOAEL is 0.25 mg/kg/day.

What about the LEL [11, 32] of the same compound?
Its LEL is 0.5 mg/kg/day.

And the LOAEL [11, 32]?
The LOAEL was 0.5 mg/kg/day.

What about the LEL [12] of the same compound?
The LEL was 0.5 mg/kg/day.

And the LOAEL [12]?
Its LOAEL is 0.5 mg/kg/day.

What about the NEL [12] of the same compound?
The NEL was 0.25 mg/kg/day.

And the NOAEL [12]?
The NOAEL was 0.25 mg/kg/day.

And the LEL [13, 33]?
The LEL was 1.8 mg/kg/day.

What about the LOAEL [13, 33] of the same compound?
Its LOAEL is 1.8 mg/kg/day.

And the NEL [13, 33]?
The NEL was 0.6 mg/kg/day.

And the NOAEL [13, 33]?
The NOAEL was 0.6 mg/kg/day.

What about the LOAEL [13, 34] of the same compound?
The LOAEL was 1.8 mg/kg/day.

What about the NEL [13, 34] of the same compound?
Its NEL is 0.6 mg/kg/day.

What about the NOAEL [13, 34] of the same compound?
Its NOAEL is 0.6 mg/kg/day.

And the LEL ([13]; group: offspring, developmental / developmental malformation / limb / [other] + systemic / in life observation / clinical signs / tremors + systemic / in life…)?
The LEL was 1.8 mg/kg/day.

And the LOAEL ([13]; group: parental, systemic / pathology microscopic / brain / degeneration + systemic / pathology microscopic / spinal cord / degeneration)?
The LOAEL was 3.6 mg/kg/day.

What about the LEL [13, 35] of the same compound?
Its LEL is 3.6 mg/kg/day.

What about the NEL [13, 35] of the same compound?
The NEL was 1.8 mg/kg/day.

And the NOAEL [13, 35]?
The NOAEL was 1.8 mg/kg/day.

What about the LEL [13, 36] of the same compound?
The LEL was 3.6 mg/kg/day.

And the LOAEL [13, 36]?
The LOAEL was 3.6 mg/kg/day.

And the NEL [13, 36]?
The NEL was 1.8 mg/kg/day.

What about the NOAEL [13, 36] of the same compound?
Its NOAEL is 1.8 mg/kg/day.

What about the LEL [14, 37] of the same compound?
Its LEL is 8 mg/kg/day.

And the LOAEL [14, 37]?
Its LOAEL is 8 mg/kg/day.

What about the NEL [14, 37] of the same compound?
The NEL was 4 mg/kg/day.

What about the NOAEL [14, 37] of the same compound?
Its NOAEL is 4 mg/kg/day.

And the LEL [14, 33]?
Its LEL is 4 mg/kg/day.

And the LOAEL [14, 33]?
The LOAEL was 4 mg/kg/day.

And the NEL [14, 38]?
Its NEL is 2 mg/kg/day.

And the NOAEL [14, 38]?
Its NOAEL is 2 mg/kg/day.

How did the LEL [15, 39] turn out when N#CCNC(=O)c1cnccc1C(F)(F)F [Flonicamid] was run?
Its LEL is 500 mg/kg/day.

What about the LOAEL [15, 39] of the same compound?
The LOAEL was 500 mg/kg/day.

What about the NEL [15, 39] of the same compound?
The NEL was 100 mg/kg/day.

And the NOAEL [15, 39]?
Its NOAEL is 100 mg/kg/day.

What about the LEL [15, 40] of the same compound?
The LEL was 500 mg/kg/day.

What about the LOAEL [15, 40] of the same compound?
Its LOAEL is 500 mg/kg/day.

And the NEL [15, 40]?
Its NEL is 100 mg/kg/day.

And the NOAEL [15, 40]?
The NOAEL was 100 mg/kg/day.

What about the LEL [16, 41] of the same compound?
Its LEL is 12.1 mg/kg/day.

What about the LOAEL [16, 41] of the same compound?
Its LOAEL is 60 mg/kg/day.

What about the NEL [16, 42] of the same compound?
Its NEL is 3.08 mg/kg/day.

And the NOAEL [16, 42]?
The NOAEL was 12.1 mg/kg/day.

And the LEL [17, 43]?
The LEL was 20 mg/kg/day.

What about the LOAEL [17, 43] of the same compound?
Its LOAEL is 20 mg/kg/day.

And the NOAEL [17, 43]?
The NOAEL was 8 mg/kg/day.

And the NEL ([17]; systemic / in life observation / clinical signs / ataxia + systemic / in life observation / clinical signs / defecation (diarrhea) + …)?
Its NEL is 8 mg/kg/day.

What about the LEL [18, 44] of the same compound?
The LEL was 7.47 mg/kg/day.

What about the NEL [18, 44] of the same compound?
Its NEL is 3.61 mg/kg/day.

What about the NOAEL [18, 44] of the same compound?
Its NOAEL is 7.47 mg/kg/day.

And the LOAEL [18, 41]?
The LOAEL was 36.5 mg/kg/day.
